21 molecules from patent US20230348424A1, “HETEROCYCLIC COMPOUNDS AND METHODS OF USE” (Schrödinger, Inc., priority 2022, published 2023) can be followed below.

SOS1:KRAS (G12C) interaction, sequence (Q07889 564-1049, stated change not applied): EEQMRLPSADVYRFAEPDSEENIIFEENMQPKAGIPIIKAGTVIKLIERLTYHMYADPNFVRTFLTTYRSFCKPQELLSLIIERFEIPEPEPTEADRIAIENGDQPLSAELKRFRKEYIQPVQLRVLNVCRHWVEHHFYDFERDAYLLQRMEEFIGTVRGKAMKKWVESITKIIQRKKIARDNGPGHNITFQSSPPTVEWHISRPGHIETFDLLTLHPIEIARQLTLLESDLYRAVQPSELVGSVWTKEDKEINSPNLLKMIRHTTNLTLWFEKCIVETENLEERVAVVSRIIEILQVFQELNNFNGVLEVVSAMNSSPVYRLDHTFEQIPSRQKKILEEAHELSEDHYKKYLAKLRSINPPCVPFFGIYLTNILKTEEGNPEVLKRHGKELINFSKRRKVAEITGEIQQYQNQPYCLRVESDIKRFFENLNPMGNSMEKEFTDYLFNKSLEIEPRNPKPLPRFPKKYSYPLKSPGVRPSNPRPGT

The assay addresses SOS1:KRAS (G12C) interaction (Homo sapiens (Human), UniProt Q07889). The assay can be described thus: SOS1 KRas(G12C) FRET Assay. The class given is binding. The following applies: 0.5 nM His10-SOS1 (res. 564-1049), 2.5 nM GST-KRAS G12C (res. 1-169), 2 hrs at RT. In outline: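 GST-KRAS G12C (res. 1-169) at 2.5 nM and His10-SOS1 (res. 564-1049) at 0.5 nM, final, in PBS with 0.1% BSA, 5 mM MgCl2, 100 mM KF, 5 mM DTT and 0.5% DMSO. After 2 h at RT, FRET read at 665/615 nm and normalized to DMSO and no-SOS1 controls. IC50 by non-linear regression.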
For orientation: IC50 means the point on the concentration scale where inhibition reaches its midpoint. Consider `C[C@@H](NC(=O)c1cn(C2(C(F)F)CC2)c(=O)cc1NC1CCN(C)CC1)c1ccc(F)c(C(F)(F)F)c1` (single isomer, unassigned) [Example 167], for which the IC50 was above 10000 nM.

As to `C[C@@H](NC(=O)c1cn(C2(C(F)F)CC2)c(=O)cc1N[C@H]1[C@@H]2CNC[C@@H]21)c1cccc(C(F)F)c1F` [Example 279, 4-(((1R,5S,6s)-3-azabicyclo[3.1.0]hexan-6-yl)amino)-N-((R)-1-(3-(difluoromethyl)-2-fluorophenyl)ethyl)-1-(1-(difluoromethyl)cyclopropyl)-6-oxo-1,6-dihydropyridine-3-carboxamide], 37.3 nM corresponded to half-maximal inhibition (IC50).

`C[C@@H](NC(=O)c1cn(C2(C(F)F)CC2)c(=O)cc1N[C@H]1CCN(C)C2(CC2)C1)c1cccc(C(F)F)c1F` (single isomer, unassigned) [Example 311] gave a 50% inhibitory concentration (IC50) of 9.7 nM.

As for `Cc1c([C@@H](C)NC(=O)c2cn(C3CCOCC3)c(=O)cc2NC2CCCn3cncc32)cccc1C(F)(F)F` (stereo partly drawn) [Example 300, N-((R)-1-(2-methyl-3-(trifluoromethyl)phenyl)ethyl)-6-oxo-1-(tetrahydro-2H-pyran-4-yl)-4-((5,6,7,8-tetrahydroimidazo[1,5-a]pyridin-8-yl)amino)-1,6-dihydropyridine-3-carboxamide], the IC50 turned out to be 20.8 nM.

As for `C[C@@H](NC(=O)c1cn(C2(C)CN(C(=O)C3CC3)C2)c(=O)cc1N[C@H]1[C@@H]2CN(C)C[C@@H]21)c1cccc(C(F)F)c1F` [Example 270, 1-(1-(cyclopropanecarbonyl)-3-methylazetidin-3-yl)-N-((R)-1-(3-(difluoromethyl)-2-fluorophenyl)ethyl)-4-(((1R,5S,6s)-3-methyl-3-azabicyclo[3.1.0]hexan-6-yl)amino)-6-oxo-1,6-dihydropyridine-3-carboxamide], the concentration for half-maximal inhibition (IC50) worked out at 1.74 nM.

The molecule `CN1C[C@@H]2[C@H](C1)[C@H]2Nc1cc(=O)n(C2(C(F)F)CC2)cc1C(=O)N[C@H](c1cccc(C(F)F)c1F)C(F)F` [Example 159, N-((R)-1-(3-(difluoromethyl)-2-fluorophenyl)-2,2-difluoroethyl)-1-(1-(difluoromethyl)cyclopropyl)-4-(((1R,5S,6s)-3-methyl-3-azabicyclo[3.1.0]hexan-6-yl)amino)-6-oxo-1,6-dihydropyridine-3-carboxamide] had an IC50 of 1060 nM.

Regarding `Cc1c([C@@H](C)NC(=O)c2cn(C3CCOCC3)c(=O)cc2N[C@H]2C[C@H]3CC[C@@H]2N3C)cccc1C(F)(F)F` (single isomer, unassigned) [Example 38], the IC50 was found to be 45.8 nM.

As for `C[C@@H](NC(=O)c1cn([C@@H]2C[C@H]2C2CC2)c(=O)cc1N[C@H]1[C@@H]2CN(C)C[C@@H]21)c1cccc(C(F)F)c1F` [Example 71, 1-((1S,2R)-[1,1′-bi(cyclopropan)]-2-yl)-N-((R)-1-(3-(difluoromethyl)-2-fluorophenyl)ethyl)-4-(((1R5S,6s)-3-methyl-3-azabicyclo[3.1.0]hexan-6-yl)amino)-6-oxo-1,6-dihydropyridine-3-carboxamide], the IC50 came to 21.9 nM.

Molecule `C[C@@H](NC(=O)c1cn([C@H]2C[C@@H]2C2CC2)c(=O)cc1NC1CCN(C)CC1)c1cccc(C(F)F)c1F` (single isomer, unassigned) [Example 73] gave an IC50 of 13 nM.

In the case of `C[C@@H](NC(=O)c1cn(C2(C(F)F)CC2)c(=O)cc1NC1CCN(C)CC1)c1cccc2c(F)coc12` [Example 54, (R)-1-(1-(difluoromethyl)cyclopropyl)-N-(1-(3-fluorobenzofuran-7-yl)ethyl)-4-((1-methylpiperidin-4-yl)amino)-6-oxo-1,6-dihydropyridine-3-carboxamide], half-maximal inhibition (IC50) required 26.6 nM.

`C[C@@H](NC(=O)c1cn(C2(C(F)F)CC2)c(=O)cc1N[C@@H]1[C@@H]2CC[C@H]1CNC2)c1cccc(C(F)F)c1F` (single isomer, unassigned) [Example 281] displayed an IC50 of 18.4 nM.

For the molecule `C[C@@H](NC(=O)c1cn([C@]23COC[C@H]2C3)c(=O)cc1N[C@H]1[C@@H]2CN(C)C[C@@H]21)c1cccc(C(C)(F)F)c1F` [Example 289, 1-((1S,5S)-3-oxabicyclo[3.1.0]hexan-1-yl)-N-((R)-1-(3-(1,1-difluoroethyl)-2-fluorophenyl)ethyl)-4-(((1R,5S,6s)-3-methyl-3-azabicyclo[3.1.0]hexan-6-yl)amino)-6-oxo-1,6-dihydropyridine-3-carboxamide], the IC50 came to 13.3 nM.

Turning to `C[C@@H](NC(=O)c1cn([C@H]2CCC2(F)F)c(=O)cc1N[C@H]1[C@@H]2CN(C)C[C@@H]21)c1cccc(C(F)(F)F)c1` (single isomer, unassigned) [Example 257], the IC50 worked out at 85.8 nM.

Consider `CC(NC(=O)c1cn(C2(C(F)F)CC2)c(=O)cc1NC1CCN(C)CC1)c1cccc(C(F)(F)F)c1Cl` (stereo not drawn) [Example 170, N-(1-(2-chloro-3-(trifluoromethyl)phenyl)ethyl)-1-(1-(difluoromethyl)cyclopropyl)-4-((1-methylpiperidin-4-yl)amino)-6-oxo-1,6-dihydropyridine-3-carboxamide], for which the IC50 is 40.9 nM.

Regarding `C[C@@H](NC(=O)c1cn([C@H]2CCC2(F)F)c(=O)cc1N[C@@H]1[C@@H]2CC[C@H]1CN(C)C2)c1cccc(C(F)F)c1F` [Example 211, 1-((S)-2,2-difluorocyclobutyl)-N-((R)-1-(3-(difluoromethyl)-2-fluorophenyl)ethyl)-4-(((1R,5S,8s)-3-methyl-3-azabicyclo[3.2.1]octan-8-yl)amino)-6-oxo-1,6-dihydropyridine-3-carboxamide], it took 29.4 nM to reach half-maximal inhibition (IC50).

Take `CN1C[C@@H]2[C@H](C1)[C@H]2Nc1cc(=O)n(C2(C(F)F)CC2)cc1C(=O)N[C@@H](c1cccc(C(F)F)c1F)C(F)(F)F` (single isomer, unassigned) [Example 275]: inhibition was half-maximal at 361 nM (IC50).

In the case of `C[C@@H](NC(=O)c1cn(C2(C(F)F)CC2)c(=O)cc1N[C@@H]1C[C@H]2C[C@@H]1CN2C)c1cccc(C(F)F)c1F` (single isomer, unassigned) [Example 239], the IC50 is 21.5 nM.

With `C[C@@H](NC(=O)c1cn(C2(C(F)F)CC2)c(=O)cc1N[C@H]1CCNC2(CC2)C1)c1cccc(C(F)F)c1F` (single isomer, unassigned) [Example 277], the IC50 came out at 9.46 nM.

Consider `C[C@@H](NC(=O)c1cn(C23CC(C2)C3)c(=O)cc1N[C@H]1[C@@H]2CN(C)C[C@@H]21)c1cccc(S(F)(F)(F)(F)F)c1F` [Example 162, 1-(bicyclo[1.1.1]pentan-1-yl)-N-((R)-1-(2-fluoro-3-(pentafluoro-16-sulfaneyl)phenyl)ethyl)-4-(((1R,5S,6s)-3-methyl-3-azabicyclo[3.1.0]hexan-6-yl)amino)-6-oxo-1,6-dihydropyridine-3-carboxamide], for which it took 27.8 nM to reach half-maximal inhibition (IC50).

For the molecule `Cc1c([C@@H](C)NC(=O)c2cn(C3CCOCC3)c(=O)cc2N[C@H]2CC[C@@]23CCCN(C)C3)cccc1C(F)(F)F` (single isomer, unassigned) [Example 296], 252 nM corresponded to half-maximal inhibition (IC50).

Regarding `C[C@@H](NC(=O)c1cn(C2(C(C)(F)F)CC2)c(=O)cc1NC1CCN(C)CC1)c1cccc(C(F)F)c1F` [Example 230, (R)-1-(1-(1,1-difluoroethyl)cyclopropyl)-N-(1-(3-(difluoromethyl)-2-fluorophenyl)ethyl)-4-((1-methylpiperidin-4-yl)amino)-6-oxo-1,6-dihydropyridine-3-carboxamide], the half-maximal inhibitory concentration (IC50) is 21.9 nM.
